# How the values were obtained:
# Type in all cases: in vitro ADME
# human MRP4 [1] = biological target: T1, human MRP4 (Homo sapiens, UniProt O15439); experiment: Inhibition of tracer uptake in MRP4-expressing vesicles; conditions: MRP4, tracer [3H]E2G 10 µM
# T1 construct: purchased GenoMembrane Co., Ltd. (Kanagawa, Japan); host or cells: Sf9
# T1 sequence (O15439 1-1325): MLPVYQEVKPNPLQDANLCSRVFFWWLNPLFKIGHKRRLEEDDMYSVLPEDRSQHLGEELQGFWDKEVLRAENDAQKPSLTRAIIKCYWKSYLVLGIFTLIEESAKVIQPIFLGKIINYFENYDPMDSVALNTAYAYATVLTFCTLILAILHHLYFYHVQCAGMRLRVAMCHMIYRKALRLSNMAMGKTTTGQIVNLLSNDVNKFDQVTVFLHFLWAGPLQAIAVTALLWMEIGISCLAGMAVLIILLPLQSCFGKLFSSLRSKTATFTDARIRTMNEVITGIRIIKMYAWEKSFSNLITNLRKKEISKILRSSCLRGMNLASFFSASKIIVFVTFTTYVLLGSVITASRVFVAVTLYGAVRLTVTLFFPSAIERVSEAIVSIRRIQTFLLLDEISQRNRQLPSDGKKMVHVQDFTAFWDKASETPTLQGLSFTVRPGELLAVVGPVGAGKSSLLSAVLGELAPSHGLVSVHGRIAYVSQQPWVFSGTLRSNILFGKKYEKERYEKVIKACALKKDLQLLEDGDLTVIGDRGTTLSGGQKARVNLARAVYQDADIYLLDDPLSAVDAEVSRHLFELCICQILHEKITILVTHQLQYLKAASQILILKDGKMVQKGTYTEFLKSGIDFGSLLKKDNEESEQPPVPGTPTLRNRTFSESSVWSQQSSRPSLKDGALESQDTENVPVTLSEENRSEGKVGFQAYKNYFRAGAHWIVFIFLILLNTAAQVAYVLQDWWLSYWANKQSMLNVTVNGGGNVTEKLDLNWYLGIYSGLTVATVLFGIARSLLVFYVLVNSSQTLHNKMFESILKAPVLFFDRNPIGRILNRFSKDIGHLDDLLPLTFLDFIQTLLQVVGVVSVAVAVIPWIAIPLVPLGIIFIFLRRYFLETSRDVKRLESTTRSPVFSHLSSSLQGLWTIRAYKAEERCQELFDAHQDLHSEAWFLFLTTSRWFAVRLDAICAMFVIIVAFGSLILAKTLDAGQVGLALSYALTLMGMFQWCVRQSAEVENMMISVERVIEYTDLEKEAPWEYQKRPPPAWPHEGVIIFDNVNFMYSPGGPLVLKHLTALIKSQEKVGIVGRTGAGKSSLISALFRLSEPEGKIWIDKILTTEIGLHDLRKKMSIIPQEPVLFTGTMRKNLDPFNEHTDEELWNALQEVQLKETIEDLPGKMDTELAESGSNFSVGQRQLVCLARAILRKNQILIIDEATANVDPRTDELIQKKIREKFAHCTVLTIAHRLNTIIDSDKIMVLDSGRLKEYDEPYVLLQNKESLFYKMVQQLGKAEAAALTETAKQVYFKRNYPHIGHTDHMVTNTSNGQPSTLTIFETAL
# Experimental: (§1) For ABC transporters, experimental kits containing Sf9-derived vesicles with high expression levels of human P-gp, MRP4, BCRP, and each ABC transporter (including buffer, ATP/AMP solution, and glutathione) were purchased from GenoMembrane Co., Ltd. (Kanagawa, Japan).
# (§2) Vesicular transport assays were carried out according to the manufacturer’s protocol. […] The reaction was started by suspending 50 μg of vesicles (10 μL) in 40 μL of the reaction buffer. After incubation for an appropriate period of time, the reaction was stopped by the addition of ice-cold stop buffer (40 mM MOPS-Tris and 70 mM KCl; pH 7.0), after which the solution was filtered through a 0.45 μm HA filter (Millipore Corp., Billerica, MA, USA) using suction, and was washed twice in 5 mL of ice-cold stop buffer. The radioactivity of the filter was measured with a Tri-Carb 2910TR liquid scintillation counter (PerkinElmer) using Ultima Gold (PerkinElmer). The amount of tracer uptake was normalized to the membrane protein amount described in the product information sheets.
# OCT2 = biological target: T2, OCT2 (Homo sapiens, UniProt O15244); experiment: [14C]fluciclovine uptake by OCT2-expressing cells; conditions: OCT2 cells vs mock cells
# T2 construct: host or cells: HEK293
# T2 sequence (O15244 1-555): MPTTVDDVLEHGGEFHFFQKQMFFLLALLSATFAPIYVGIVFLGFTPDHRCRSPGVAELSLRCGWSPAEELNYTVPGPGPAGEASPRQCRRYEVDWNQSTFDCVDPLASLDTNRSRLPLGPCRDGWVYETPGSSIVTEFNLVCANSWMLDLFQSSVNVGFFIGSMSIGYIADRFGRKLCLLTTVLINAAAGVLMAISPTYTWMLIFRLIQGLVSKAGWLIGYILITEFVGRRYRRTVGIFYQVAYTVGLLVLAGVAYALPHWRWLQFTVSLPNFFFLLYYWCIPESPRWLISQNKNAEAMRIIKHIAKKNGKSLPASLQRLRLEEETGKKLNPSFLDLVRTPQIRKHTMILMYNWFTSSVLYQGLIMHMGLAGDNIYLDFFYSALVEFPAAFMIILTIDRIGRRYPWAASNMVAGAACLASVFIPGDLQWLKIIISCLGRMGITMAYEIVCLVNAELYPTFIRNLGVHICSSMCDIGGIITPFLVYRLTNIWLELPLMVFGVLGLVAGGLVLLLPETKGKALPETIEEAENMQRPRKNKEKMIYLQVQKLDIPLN
# human MRP4 [2] = biological target: T1, human MRP4; experiment: [14C]fluciclovine uptake by MRP4-expressing inside-out vesicles
# Experimental: as §1, §2
IC50 (human MRP4 [1]) [mM],SMILES,drug transporter-mediated uptake (OCT2),uptake compared with control vesicles (human MRP4 [2])
9.28 ± 1.9,N[C@]1(C(=O)O)C[C@@H](F)C1 [fluciclovine],–,–
–,"N[14C]1(C(=O)O)CC(F)C1 (stereo not drawn) [[^14C]fluciclovine, trans-1-amino-3-fluoro[1-^14C]cyclobutanecarboxylic acid]",negligible,no significant difference

# From publication PMC5085761 (International Journal of Molecular Sciences, 2016)
